How the values were obtained:
[1] = system: m-calpain in HMEC-1 cells; test: Calpain activity by Boc-LM-CMAC cleavage; format: cell-based, human; details: IP-10dp 10 μM, VEGF 75 ng/ml, BAPTA/AM pre-incubation
Text: Prior research has also shown that in endothelial cells, the CXCR3-activation of PKA inhibits motility secondary to inhibitory phosphorylation of m-calpain (also known as […]). VEGF induces calpain activity in endothelial cells, and […] (also known as […]) is activated, at least in part, by ERK phosphorylation on serine 50 and in other cells μ-calpain is activated secondary to a calcium flux. In this experiment, the IP-10dp affect on m-calpain is studied by using the membrane permeable synthetic calpain substrate Boc-LM-CMAC. Since the pre-fluorescent substrate Boc-LM-CMAC can be cleaved by both m- and μ-calpain, this experiment used BAPTA/AM, a membrane permeable calcium chelator, to distinguish between m- and μ-calpain activation in cells as this blocks activation of μ-calpain but not m-calpain.
In order to establish whether the IP-10dp inhibition of motility involves this above-described blockade of calpain activation, 8 well chamber slides were coated with 0.1% gelatin for 24 hours at 4° C. The gelatin was removed and HMEC-1 cells were plated at 12,000 cells/well then incubated in 10% FBS-EBM-EC media for 24 hrs. The media was removed and the cells were further incubated for 12 hrs with 0.5% dialyzed FBS-EBM media. All cell cultures were then incubated with either BAPTA AM ([…]), or Calpain inhibitor I (CI-1, […]) at 37° C. for 30 minutes. […]

HMEC-1 cells = test: Tube formation after pre-treatment with CXCR3-neutralizing antibody; format: cell-based, human
Description: To determine if the IP-10dp peptide is acting through the same signaling pathways as IP-10, an experiment was conducted using a CXCR3-neutralizing antibody (also referred to herein as CXCR3 Ab) to assess that antibody's impact upon IP-10dp's ability to block tube formation. HMEC-1 cells were grown, detached and re-suspended in serum-free media and all were pretreated with CXCR3 Ab (0.5 μg/ml) 30 minutes prior to the addition of VEGF (75 ng/ml), IP-10 (300 ng/ml), IP-10dp (10 μM) and/or Immunoglobulin G (or “IgG,” as control). The thus-treated cells (1×10^4 cells/well) were added to 24-well culture plates coated with growth factor reduced Matrigel and incubated for 24 hours, and endothelial tubes were allowed to form as described above. Images were obtained as above. […]
Quantification of the endothelial tubes formed was performed as above, using MetaMorph, with the data being shown in the graphs of FIG. 6B are of N=6 and normalized to no treatment (average±SEM), and with *P<0.05.

CXCR3 on HMEC-1 cells = target: T1, CXCR3 on HMEC-1 cells (Homo sapiens, UniProt P49682); test: Flow cytometry binding of biotin-tagged peptide to HMEC-1 cells
T1 construct: HMEC-1 cells express CXCR3; endogenous in cells; host or cells: HMEC-1 (human dermal microvascular endothelial cells)
T1 sequence (P49682 1-415 isoform P49682-2): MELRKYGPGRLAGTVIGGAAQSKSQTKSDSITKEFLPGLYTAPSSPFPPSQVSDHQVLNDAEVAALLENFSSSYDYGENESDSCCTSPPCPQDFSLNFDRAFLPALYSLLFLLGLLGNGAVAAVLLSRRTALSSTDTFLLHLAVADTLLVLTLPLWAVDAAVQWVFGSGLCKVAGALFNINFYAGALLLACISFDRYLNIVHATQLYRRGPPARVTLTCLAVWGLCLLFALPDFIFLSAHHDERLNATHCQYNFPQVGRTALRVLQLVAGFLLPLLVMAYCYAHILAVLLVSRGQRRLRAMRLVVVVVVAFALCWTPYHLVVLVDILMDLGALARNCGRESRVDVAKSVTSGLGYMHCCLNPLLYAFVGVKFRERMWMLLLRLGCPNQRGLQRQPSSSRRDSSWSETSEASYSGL
Description: In the various experiments described below, unless otherwise noted, Biotin labeling was accomplished according to the following procedure. Sulfo-NHS-LC-Biotin (Thermo Scientific 21327) was prepared to result in a 10 mM solution of Biotin. IP-10, IP-10dp or anti-CXCR3 neutralizing antibody were dissolved in PBS according to result in a 20-fold molar excess of biotin reagent to give a 4-6 biotin groups per peptide molecule. The biotin reagent and IP-10 and/or IP-10dp was mixed and incubated on ice for 2 hours. Appropriate controls were used to determine the levels of biotin incorporation. HMEC-1 cells were washed in ice-cold PBS (pH 8) to remove amine-containing media and proteins. Cells were suspended and Sulfo-NHS-LC-Biotin label peptide was added. Mixture was incubated at 4° C. to reduce active internalization of the biotin reagent for 30 minutes. Cells were then washed three times in PBS+100 mM glycine to quench and remove excess biotin. Cells were then incubated with streptavidin conjugated with FITC and analyzed on a BD FACSCalbur flow cytometer.
To determine whether IP-10dp binds to CXCR3 on human dermal microvascular endothelial cells, we analyzed the ability of Sulfo-LC-Biotin tagged IP-10 and IP-10dp to bind to H MEC-1 cells using flow cytometery. […] The cells were then incubated with FITC conjugated with streptavidin, and then analyzed on a BD FACSCalbur flow cytometer. […]

PESKAIKNLLKAVSKEMSKRSP (IP-10dp; listed as Homo sapiens) [synthetic fragment of IP-10 comprising residues 78-98, the C-terminal α-helical domain]
VEGF mediated m-calpain activity [1]: inhibits VEGF mediated m-calpain activity | tube formation inhibition after CXCR3 Ab pre-treatment (HMEC-1 cells; CXCR3 Ab 0.5 μg/ml 30 minutes before, IP-10 300 ng/ml, IP-10dp 10 μM): significantly blocked | effect on VEGF-driven tube formation when CXCR3 receptor neutralized (HMEC-1 cells; CXCR3 Ab 0.5 μg/ml, VEGF 75 ng/ml): unable to override the angiogenic signals from VEGF | binding to HMEC-1 cells (CXCR3 on HMEC-1 cells; Sulfo-LC-Biotin tagged peptide, streptavidin-FITC, flow cytometry): binds to human endothelial cells | fluorescence intensity of binding to CXCR3 on HMEC-1 cells compared with full length IP-10 (CXCR3 on HMEC-1 cells; relative to control, biotin-tagged): slightly lower fluorescence intensity

From patent US8734775B2, “Chemokine derived peptides that bind with chemokine receptor CXCR3 and uses for chronic wound and angiogenesis inhibition treatments” (University of Pittsburgh, priority 2011, dated 2014)
